Results on 27 molecules are retold here after patent publication US12448388B2, “PRMT5 inhibitors and uses thereof” (Gilead Sciences, Inc., priority 2023, dated 2025).

The structures appear in SMILES notation. Like-named read-outs stand apart in the source and are kept apart here. Some results are limits rather than exact numbers.

The test system of the test is HCT116 MTAP-deleted cell lines. The test can be described thus: Cell viability assay (CellTiter-Glo, 7 days), HCT116 MTAP-deleted. In kind it is cell-based. Conditions: Homo sapiens, HCT-116. The essentials:
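CC50 values come from 7-day CellTiter-Glo viability measurements on cells exposed to a dose range of PRMT5 inhibitors dispensed from DMSO stocks.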
(In general: Cellular ATP, detected with luciferase, serves as a proxy for viable cell number.)

[1] abbreviates: cell viability assay, HCT116 MTAP-deleted, class symbols, read-out: CC50.
Where [2] appears, read: cell viability, HCT116 MTAP-deleted, class symbols, read-out: CC50.

For orientation: CC50 means the concentration at which the toxic effect on the cells reaches its halfway point.

Regarding `CN(Cc1ccc(-c2cnn(C(F)F)c2)cc1Cl)C(=O)c1cc2c(cc1F)nc(N)c1cncn12` [Ff-551, 4-amino-N-(2-chloro-4-(1-(difluoromethyl)-1H-pyrazol-4-yl)benzyl)-7-fluoro-N-methylimidazo[1,5-a]quinoxaline-8-carboxamide], the CC50 under setting [1] lay within 100 to 1000 nM. Take `Nc1nc2cc(F)c(C(=O)N3CCC[C@@H]4OCc5nc(C(F)(F)F)ccc5[C@@H]43)cc2n2cncc12` [Ff-357, (4-amino-7-fluoroimidazo[1,5-a]quinoxalin-8-yl)((4aS,10bS)-8-(trifluoromethyl)-2,3,4,4a,6,10b-hexahydro-1H-pyrano[3,2-b:5,4-b′]dipyridin-1-yl)methanone]: under setting [2], the CC50 was below 100 nM.

For `CN(C(=O)c1cc2c(cc1Cl)nc(N)c1cncn12)[C@@H]1COc2cc([C@@H]3C[C@H]3C#N)c(F)cc21` [Ff-443, Trans-4-amino-7-chloro-N-[(3S)-6-(2-cyanocyclopropyl)-5-fluoro-2,3-dihydrobenzofuran-3-yl]-N-methyl-imidazo[1,5-a]quinoxaline-8-carboxamide], the cytotoxic concentration (CC50) under setting [1] is below 100 nM.

`Nc1nc2cc(F)c(C(=O)N3CC4(CC[C@H]3c3ccc(C(F)(F)F)cc3)CC4)cc2n2cncc12` (single isomer, unassigned) [Ff-155] returned a CC50 of 100 to 1000 nM. As to `C[C@@H]1C[C@@H]2Oc3cc(OC(F)(F)F)ccc3[C@@H]2N(C(=O)c2cc3c(cn2)nc(N)c2cncn23)C1` [Ff-507, (4-aminoimidazo[1,5-a]pyrido[3,4-e]pyrazin-8-yl)((3R,4aS,9bS)-3-methyl-7-(trifluoromethoxy)-3,4,4a,9b-tetrahydrobenzofuro[3,2-b]pyridin-1(2H)-yl)methanone], under setting [1], the half-maximal cytotoxic concentration (CC50) is below 100 nM. Take `CN(C(=O)c1cc2c(cc1F)nc(N)c1cncn12)[C@H]1c2ccc(C(F)(F)F)cc2[C@@H]2C[C@@H]21` [Ff-253, 4-amino-7-fluoro-N-methyl-N-((1aR,6R,6aS)-3-(trifluoromethyl)-1,1a,6,6a-tetrahydrocyclopropa[a]inden-6-yl)imidazo[1,5-a]quinoxaline-8-carboxamide]: the cytotoxic concentration (CC50) under setting [2] lay in the range of 100 to 1000 nM.

Consider `CN(C(=O)c1cc2c(cc1F)nc(N)c1cncn12)C1COc2c1ccc(C(F)(F)F)c2Cl` (stereo not drawn) [Ff-158, 4-amino-N-(7-chloro-6-(trifluoromethyl)-2,3-dihydrobenzofuran-3-yl)-7-fluoro-N-methylimidazo[1,5-a]quinoxaline-8-carboxamide], for which, under setting [2], the CC50 is below 100 nM. As for `Nc1nc2cc(F)c(C(=O)N(Cc3ccc(C(F)(F)F)cn3)c3cnn4ccccc34)cc2n2cncc12` [Ff-423, 4-amino-7-fluoro-N-pyrazolo[1,5-a]pyridin-3-yl-N-[[5-(trifluoromethyl)-2-pyridyl]methyl]imidazo[1,5-a]quinoxaline-8-carboxamide], under setting [1], the CC50 is below 100 nM. As to `Cn1cc(N(Cc2ccc(-c3cnn(C(F)(F)F)c3)cc2F)C(=O)c2cc3c(cc2F)nc(N)c2cncn23)cn1` [Ff-220, 4-amino-7-fluoro-N-(2-fluoro-4-(1-(trifluoromethyl)-1H-pyrazol-4-yl)benzyl)-N-(1-methyl-1H-pyrazol-4-yl)imidazo[1,5-a]quinoxaline-8-carboxamide], the 50% cytotoxic concentration (CC50) under setting [2] is below 100 nM. With `CN(C(=O)c1cc2c(cc1F)nc(N)c1cncn12)[C@@H]1COc2cc(C#CC3C4COCC34)ccc21` (stereo partly drawn) [Ff-524, N-((3S)-6-((3-oxabicyclo[3.1.0]hexan-6-yl)ethynyl)-2,3-dihydrobenzofuran-3-yl)-4-amino-7-fluoro-N-methylimidazo[1,5-a]quinoxaline-8-carboxamide], the 50% cytotoxic concentration (CC50) under setting [1] is below 100 nM.

`CN(C(=O)c1cc2c(cc1F)nc(N)c1cncn12)[C@H]1c2ccc(C(F)(F)F)cc2[C@H]2C[C@H]21` [Ff-255, 4-amino-7-fluoro-N-methyl-N-((1aS,6R,6aR)-3-(trifluoromethyl)-1,1a,6,6a-tetrahydrocyclopropa[a]inden-6-yl)imidazo[1,5-a]quinoxaline-8-carboxamide]: the half-maximal cytotoxic concentration (CC50) under setting [2] was in the range of 100 to 1000 nM.

As to `CN(C(=O)c1cc2c(cc1F)nc(N)c1cncn12)[C@@H]1COc2cc(C3COC3)ccc21` [Ff-573, (S)-4-amino-7-fluoro-N-methyl-N-(6-(oxetan-3-yl)-2,3-dihydrobenzofuran-3-yl)imidazo[1,5-a]quinoxaline-8-carboxamide], the CC50 under setting [1] was in the range of 100 to 1000 nM.

Take `Nc1nc2cc(F)c(C(=O)N3C[C@@H](F)C[C@@H]4Oc5cc(OC(F)(F)F)ccc5[C@@H]43)cc2n2cncc12` [Ff-666, (4-amino-7-fluoroimidazo[1,5-a]quinoxalin-8-yl)((3S,4aS,9bS)-3-fluoro-7-(trifluoromethoxy)-3,4,4a,9b-tetrahydrobenzofuro[3,2-b]pyridin-1(2H)-yl)methanone]: the CC50 under setting [1] is below 100 nM.

For the molecule `CN(C(=O)c1cc2c(cc1F)nc(N)c1cncn12)C1CCc2nc(Cl)sc21` (stereo not drawn) [Ff-16, 4-amino-N-(2-chloro-5,6-dihydro-4H-cyclopenta[d]thiazol-6-yl)-7-fluoro-N-methylimidazo[1,5-a]quinoxaline-8-carboxamide], under setting [2], the CC50 was 100 to 1000 nM.

On to `Nc1nc2cc(F)c(C(=O)N3CCO[C@@H]4Cc5cc(-c6cnn(C(F)(F)F)c6)ccc5[C@@H]43)cc2n2cncc12` [Ff-234, (4-amino-7-fluoroimidazo[1,5-a]quinoxalin-8-yl)((4aS,9aR)-7-(1-(trifluoromethyl)-1H-pyrazol-4-yl)-2,3,9,9a-tetrahydroindeno[2,1-b][1,4]oxazin-4(4aH)-yl)methanone], for which the CC50 under setting [2] lay in the range of 100 to 1000 nM.

Take `C[C@H]1CN(C(=O)c2cc3c(cc2F)nc(N)c2cncn23)[C@H]2c3ccc(Br)cc3C[C@H]2O1` [Ff-93, (4-amino-7-fluoroimidazo[1,5-a]quinoxalin-8-yl)((2S,4aS,9aR)-7-bromo-2-methyl-2,3,9,9a-tetrahydroindeno[2,1-b][1,4]oxazin-4(4aH)-yl)methanone]: the CC50 under setting [2] was below 100 nM. Take `CN(C(=O)c1cc2c(cc1F)nc(N)c1cncn12)[C@@H]1COc2cc(C3CC3(C)C)ccc21` (stereo partly drawn) [Ff-475, 4-amino-N-((3S)-6-(2,2-dimethylcyclopropyl)-2,3-dihydrobenzofuran-3-yl)-7-fluoro-N-methylimidazo[1,5-a]quinoxaline-8-carboxamide]: the CC50 under setting [1] was below 100 nM. Take `COc1ccc2c(n1)CCC2N(C)C(=O)c1cc2c(cc1F)nc(N)c1cncn12` (stereo not drawn) [Ff-271, 4-amino-7-fluoro-N-(2-methoxy-6,7-dihydro-5H-cyclopenta[b]pyridin-5-yl)-N-methylimidazo[1,5-a]quinoxaline-8-carboxamide]: the CC50 under setting [2] lay in the range of 100 to 1000 nM.

Regarding `CN(C(=O)c1cc2c(cc1F)nc(N)c1cncn12)[C@@H]1COc2cc(C3CC(F)(F)C3)ccc21` [Ff-572, (S)-4-amino-N-(6-(3,3-difluorocyclobutyl)-2,3-dihydrobenzofuran-3-yl)-7-fluoro-N-methylimidazo[1,5-a]quinoxaline-8-carboxamide], under setting [1], the cytotoxic concentration (CC50) was below 100 nM. Regarding `Nc1nc2cc(F)c(C(=O)N(Cc3ccc4ncsc4c3)C34CC(C3)C4)cc2n2cncc12` [Ff-52, 4-amino-N-(benzo[d]thiazol-6-ylmethyl)-N-(bicyclo[1.1.1]pentan-1-yl)-7-fluoroimidazo[1,5-a]quinoxaline-8-carboxamide], under setting [2], the 50% cytotoxic concentration (CC50) is 100 to 1000 nM. Take `CN(C(=O)c1cc2c(cc1C#N)nc(N)c1cncn12)[C@@H]1COc2cc(OC(F)(F)F)ccc21` [Ff-561, (S)-4-amino-7-cyano-N-methyl-N-(6-(trifluoromethoxy)-2,3-dihydrobenzofuran-3-yl)imidazo[1,5-a]quinoxaline-8-carboxamide]: the CC50 under setting [1] was below 100 nM.

Regarding `CN(C(=O)C1CC1)N(Cc1cc(F)c(F)cc1F)C(=O)c1cc2c(cc1F)nc(N)c1cncn12` [Fa-8, 4-amino-N′-(cyclopropanecarbonyl)-7-fluoro-N′-methyl-N-(2,4,5-trifluorobenzyl)imidazo[1,5-a]quinoxaline-8-carbohydrazide], the CC50 under setting [2] is below 100 nM. Regarding `Nc1nc2cc(F)c(C(=O)N3CCC[C@@H]4OCc5cc(C6CC6)ccc5[C@@H]43)cc2n2cncc12` (racemic) [Ff-301, Rac-(4-amino-7-fluoroimidazo[1,5-a]quinoxalin-8-yl)((4aS,10bS)-8-cyclopropyl-2,3,4,4a,6,10b-hexahydro-1H-isochromeno[4,3-b]pyridin-1-yl)methanone], the CC50 under setting [2] was below 100 nM. As for `Cc1nn(C)c(C)c1N(Cc1ccc(C(F)(F)F)cc1F)C(=O)c1cc2c(cc1F)nc(N)c1cncn12` [Ff-417, 4-amino-7-fluoro-N-[[2-fluoro-4-(trifluoromethyl)phenyl]methyl]-N-(1,3,5-trimethylpyrazol-4-yl)imidazo[1,5-a]quinoxaline-8-carboxamide], the CC50 under setting [1] is below 100 nM. Turning to `C[C@@H]1C[C@@H](N(C)C(=O)c2cc3c(cc2F)nc(N)c2cncn23)c2ccc(C(F)(F)F)cc21` [Ff-671, 4-amino-7-fluoro-N-methyl-N-((1R,3R)-3-methyl-5-(trifluoromethyl)-2,3-dihydro-1H-inden-1-yl)imidazo[1,5-a]quinoxaline-8-carboxamide], the CC50 under setting [1] is below 100 nM.

On to `Cc1ncn2c1c(N)nc1cc(Cl)c(C(=O)N(C)[C@@H]3COc4cc(C(F)(F)F)ccc43)cc12` [Ff-492, (S)-4-amino-7-chloro-N,3-dimethyl-N-(6-(trifluoromethyl)-2,3-dihydrobenzofuran-3-yl)imidazo[1,5-a]quinoxaline-8-carboxamide], for which the CC50 under setting [1] was below 100 nM.

Consider `CC1(C)C[C@@H]2Oc3nc(C(F)(F)F)ccc3[C@@H]2N(C(=O)c2cc3c(cc2F)nc(N)c2cncn23)C1` (racemic) [Ff-384, Rac-(4-amino-7-fluoroimidazo[1,5-a]quinoxalin-8-yl)((4aS,9bS)-3,3-dimethyl-7-(trifluoromethyl)-3,4,4a,9b-tetrahydrofuro[2,3-b:4,5-b′]dipyridin-1(2H)-yl)methanone], for which the CC50 under setting [1] was below 100 nM.
